Results taken from US8673578B2, “Methods of identifying antagonists of the hTAS2R46 bitter taste receptor” (Deutsches Institut für Ernahrungsforschung Potsdam-Rehbrücke, priority 2009, dated 2014).

Experiments:
other hTAS2 receptors = assay: calcium imaging (FLIPR), activation of hTAS2R-transfected HEK293T-Gα16gust44 cells; format: cell-based, human; conditions: 100 μM test substance, bath application
Description: (§1) Human TAS2R cDNAs were cloned into pcDNA5/FRT (Invitrogen, San Diego, Calif.). For adequate plasma membrane targeting, receptor cDNA was fused to the aminoterminal sequence of the rat somatostatin type 3 receptor at the aminoterminus of the recombinant protein (Bufe, B., T. Hofmann, et al. (2002) Nat Genet. 32(3): 397-401). For immunological detection, the Herpes simplex Glycoprotein D epitope was supplemented at the carboxyterminus of the recombinant protein (Bufe et al., supra). Receptor constructs were transiently transfected into HEK293T cells stably expressing the chimeric G protein subunit Gα16gust44 (Ueda, T., S. Ugawa, et al. (2003) J Neurosci 23(19): 7376-80) using Lipofectamine 2000 (Invitrogen, San Diego, Calif.) in 96-well plates.
Calcium Imaging experiments were performed 24 h after transfection using a Fluorometric Imaging Plate Reader (FLIPR, Molecular Devices, Munich, Germany) as previously described (Bufe et al., supra). Taste active compounds were ordered from Sigma (Sigma-Aldrich, Taufkirchen, Germany). Absinthin, 3β hydroxy dihydro costunolide and 3β hydroxy pelenolide were kindly provided by Giovanni Appendino (Novara, Italy). […] Fluorescence signals after application of test substances were corrected for and normalized to background fluorescence (ΔF/F═(F−F0)/F0), and baseline noise was subtracted. […]

hTAS2R7 = target: T1, hTAS2R7 (Homo sapiens, UniProt Q9NYW3); assay: calcium imaging (FLIPR), effect on agonist-dependent hTAS2R activation; format: cell-based; conditions: 100 μM test substance; agonist quinine sulfate 10 μM; agonist alone = 100%
T1 construct: expressed in transfected cells; host or cells: HEK293T cells stably expressing chimeric Gα16gust44, transient transfection
T1 sequence (Q9NYW3 1-318): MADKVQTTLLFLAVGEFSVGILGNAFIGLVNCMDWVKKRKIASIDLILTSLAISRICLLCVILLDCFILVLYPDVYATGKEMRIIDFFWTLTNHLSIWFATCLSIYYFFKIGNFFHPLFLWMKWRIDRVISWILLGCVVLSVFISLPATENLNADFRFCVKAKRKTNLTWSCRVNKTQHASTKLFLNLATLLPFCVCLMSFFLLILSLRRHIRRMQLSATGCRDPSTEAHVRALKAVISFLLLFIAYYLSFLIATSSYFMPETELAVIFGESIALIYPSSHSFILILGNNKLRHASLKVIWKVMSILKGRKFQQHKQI
Description: as §1
(§2) Calcium Imaging experiments were performed 24 h after transfection using a Fluorometric Imaging Plate Reader (FLIPR, Molecular Devices, Munich, Germany) as previously described (Bufe et al., supra). Taste active compounds were ordered from Sigma (Sigma-Aldrich, Taufkirchen, Germany). Absinthin, 3β hydroxy dihydro costunolide and 3β hydroxy pelenolide were kindly provided by Giovanni Appendino (Novara, Italy). Test substances were directly dissolved in C1 buffer (130 mM NaCl, 10 mM Na-Hepes, 10 mM Glucose, 5 mM KCl, 2 mM CaCl2, pH 7.4) or in DMSO, respectively. DMSO stocks were further diluted in C1 buffer not exceeding a final DMSO concentration of 1% on the cells. For the investigation of antagonistic effects, test substances were premixed. Agonists were applied at concentrations corresponding to EC90, except where indicated otherwise (Table 2). Data were collected from 3 independent experiments performed in quadruplicates and processed with SigmaPlot (SPSS, Chicago, Ill.). Fluorescence signals after application of test substances were corrected for and normalized to background fluorescence (ΔF/F═(F−F0)/F0), and baseline noise was subtracted. Calculation of dose-response curves was done by nonlinear regression using the function f(y)=((a−d)/(1+(x/EC50)^nH)+d).
(§3) To test 3β hydroxy dihydro costunolide and 3β hydroxy pelenolide for antagonistic or enhancing effects on hTAS2R activation, transfected cells were stimulated with cognate agonist bitter substances at EC90 concentrations (Table 2) without 3β hydroxy dihydro costunolide and 3β hydroxy pelenolide. The cellular responses after application of the agonist alone were set to 100%, responses obtained after coapplication of agonists and 100 μM 3β hydroxy dihydro costunolide or 100 μM 3β hydroxy pelenolide are shown relative to this value (FIG. 4).

hTAS2R5 = target: T2, hTAS2R5 (Homo sapiens, UniProt Q9NYW4); assay: as above; format: cell-based; conditions: 100 μM test substance; agonist denatonium saccharide 3000 μM; agonist alone = 100%
T2 construct: expressed in transfected cells; host or cells: HEK293T cells stably expressing chimeric Gα16gust44, transient transfection
T2 sequence (Q9NYW4 1-299): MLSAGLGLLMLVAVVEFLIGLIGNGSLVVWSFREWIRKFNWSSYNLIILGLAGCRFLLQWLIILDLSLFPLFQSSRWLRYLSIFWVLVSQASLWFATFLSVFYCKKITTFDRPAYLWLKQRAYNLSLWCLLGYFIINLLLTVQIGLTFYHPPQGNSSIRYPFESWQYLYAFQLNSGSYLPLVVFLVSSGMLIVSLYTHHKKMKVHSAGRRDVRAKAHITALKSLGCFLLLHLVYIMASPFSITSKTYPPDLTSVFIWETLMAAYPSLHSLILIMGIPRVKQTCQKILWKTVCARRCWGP
Description: as §1, §2, §3

hTAS2R46 = target: T3, hTAS2R46 (Homo sapiens, UniProt P59540); assay: calcium imaging (FLIPR), activation of hTAS2R-transfected HEK293T-Gα16gust44 cells; format: cell-based; conditions: 100 μM test substance, bath application
T3 construct: expressed in transfected cells; host or cells: HEK293T cells stably expressing chimeric Gα16gust44, transient transfection
T3 sequence (P59540 1-309): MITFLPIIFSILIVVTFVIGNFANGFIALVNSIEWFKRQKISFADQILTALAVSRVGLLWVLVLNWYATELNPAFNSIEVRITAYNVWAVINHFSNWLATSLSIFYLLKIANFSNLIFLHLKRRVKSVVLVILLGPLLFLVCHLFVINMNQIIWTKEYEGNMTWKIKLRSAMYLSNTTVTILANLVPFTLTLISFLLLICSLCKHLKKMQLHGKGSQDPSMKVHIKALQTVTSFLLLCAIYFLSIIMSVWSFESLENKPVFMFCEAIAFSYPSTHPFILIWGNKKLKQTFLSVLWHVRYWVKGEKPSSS
Description: as §1
as §2, with “f(y)=((a−d)/(1+(x/EC50)^nH)+d). […]” for “f(y)=((a−d)/(1+(x/EC50)^nH)+d).”
Finally, the impact of chemical modifications on the antagonistic properties of 3β hydroxy dihydro costunolide on hTAS2R46-expressing cells was studied. Derivatives of 3β hydroxy dihydro costunolide with site-directed modifications at C3 and C11 were generated (FIG. 7A) These derivatives were tested for activation or inhibition of hTAS2R46-expressing cells in the absence or presence of the agonist strychnine (3 μM) and half-maximum effective concentrations (EC50) or half-maximal inhibitory concentrations were calculated (FIG. 7B).

Compound: C/C1=C\C[C@H](O)/C(C)=C/[C@H]2OC(=O)[C@@H](C)C2CC1 (stereo partly drawn) [3β hydroxy dihydro costunolide]
- calcium response of cells expressing any of the other TAS2Rs (other hTAS2 receptors): did not respond
- agonist-dependent response of hTAS2R7-expressing cells on coapplication (hTAS2R7): increased responses
- agonist-dependent response of hTAS2R5-expressing cells on coapplication (hTAS2R5): increased responses

Compound: C/C1=C\C[C@H](O)[C@@H](C)C[C@H]2OC(=O)[C@@H](C)[C@@H]2CC1 [3β hydroxy pelenolide]
- calcium response of hTAS2R46-transfected cells (hTAS2R46): displayed calcium signals
